From US10006057B2, “Recombinant yeast having enhanced gamma valerolactone tolerance and methods of use” (Wisconsin Alumni Research Foundation, priority 2014, dated 2018)
“Also recorded” adds a separate entry of the source.

What was measured:
Type in all cases: cell-based, Saccharomyces cerevisiae
[1] = test system: yeast; test: IC50 determination, growth inhibition (strain not stated at the result); settings: FIG. 6B; p<0.001
Method: (§1) Compounds tested were purchased from Sigma. Cells of S. cerevisiae (MATα pdr1Δ::natMX pdr3Δ::KI.URA3 snq2Δ::KI.LEU2 can1Δ::STE2pr-Sp_his5 lyp1Δ his3Δ1 leu2Δ0 ura3Δ0 met15Δ0), referred to as control strain, were grown in 200 μl cultures at 30° C. in YPD, with a drug or DMSO control. Plates were read on a TECAN M1000 over a 48 h growth period. The specific growth rate was calculated using GCAT analysis software (available at gcat3-pub.glbrc.org on the world wide web). When presented, IC50 values for growth inhibition were calculated from triplicate 8 point dose curves and SigmaPlot 12.0. When presented, error bars are Mean±Standard error of at least 3 replicates.

[2] = test system: yeast; test: 4-vinylphenol-GVL synergy, growth; settings: FIG. 6C; p<0.01
[3] = test system: membrane integrity of yeast cells; test: Cell leakage assay (dye uptake, flow cytometry); settings: dye uptake after treatment; FIG. 3A, B
Source text: To confirm if GVL treatment can rapidly affect cell integrity, we assessed cell permeability after GVL treatment. […] Given that both GVL and ethanol can damage cellular membranes, we also tested if these compounds are synergistic.
A FungaLight™ cell viability assay (Invitrogen L34952) was used to determine if poacic acid caused membrane damage we used using a Guava Flow Cytometer (Millipore, USA). The population of stained cells (damaged integrity) vs non-stained cells can be determined by flow cytometry. Caspofungin (50 ng/ml) was included as a positive control. MMS and DMSO were included as a non-cell wall targeting and solvent control respectively. To test the effects of the compounds on both active and arrested cells, log-phase cultures were washed with 1×PBS and resuspended to an OD of 0.5 in either YPD media or YP (no carbon source) in the presence of the drugs (n=3) for 4 hours at 30° C. The cells were then stained and immediately read by flow cytometry. A one-way ANOVA and Tukey's test was used to calculate the difference between drug treatments among cells with arrested growth.

[4] = test system: deletion mutants of SEC28, VPS38, DID2; test: Single mutant validation of GVL sensitivity; settings: single mutant cultures; FIG. 2C
Source text: Among the top 10 sensitive deletion mutants, we found significant enrichment for genes involved in late endosome to vacuole transport (p<0.01, FIG. 2B), driven by deletion mutants of SEC28, VPS38, DID2. […] Deletion mutants of these 3 genes have increased sensitivity to ethanol, heat, and membrane disrupting agents such as miconazole and nigercin. When we correlated the chemical genomic profile of GVL with the yeast genetic interaction network, we found significant enrichment for genes involved in golgi-vesicle mediated transport among the top 10 correlations (p=0.001). RET2 was consistently predicted as the top correlation for the GVL chemical genomic profile. Ret2p is a subunit of the coatomer complex involved in retrograde transport between Golgi and ER is also involved in golgi transport of vesicles. RET2 mutants similarity show increased sensitivity to heat and membrane disrupting agents.
(§2) Compounds tested were purchased from Sigma. […] Plates were read on a TECAN M1000 over a 48 h growth period. The specific growth rate was calculated using GCAT analysis software (available at gcat3-pub.glbrc.org on the world wide web). When presented, IC50 values for growth inhibition were calculated from triplicate 8 point dose curves and SigmaPlot 12.0. […]

[5] = test system: Y133 + pPAD1; test: GVL IC50, single mutant cultures; settings: FIG. 4D
Source text: We wanted to extend our chemical genomic analysis to industrially an industrially relevant, xylose ferment yeast strain. Presently there are no available genome-wide deletion mutant collections in industrial yeast, so we took a complementary approach. The MoBY-ORF 2.0 plasmid collection is with barcoded versions of 95% of all S. cerevisiae genes each expressed on a 2μ plasmid. This collection of plasmids can be pooled and transformed into any yeast to allow investigations of the effect of gene dose under stress conditions. We transformed a version of the xylose-fermenting yeast GLBRC-Y133 [15] en masse with the pooled plasmid collection and selected over 50K individual transformants (10× genome coverage). We grew this pooled transformant collection in the presence of 2.5% GVL or a water control under anaerobic conditions in glucose/xylose containing media and assessed the effects of increased gene dose on growth in the presence of GVL. We found the Pad1p overexpression mutant was one of the top sensitive strains (p<0.01, FIG. 4C). […]
as §2

[6] = test system: lab strain; test: GVL-ethanol synergy, growth; settings: FIG. 3C
Method: (§3) To test for synergy, a 6×6 dose matrix was initially used to identify potentially synergistic dose combinations, these points were then confirmed in triplicate. 200 μl cultures were grown with combinations of with poacic acid (125 μg/ml), caspofungin (12.5 ng/ml) and fluconazole (3.8 μg/ml) and the relevant single agent and solvent controls their OD measured after 24 h. Synergy was determined by comparing actual optical density in the presence of compound combinations to an expected value calculated using the multiplicative hypothesis. This assumes that, in the absence of an interaction, each compound would decrease the OD of the cell culture by the same fraction in the presence of the other compound as it does when applied alone, i.e., E=A*B/C, where E is the expected OD, A is OD when compound A is applied alone, B is OD when compound B is applied alone, and C is OD of the control culture (DMSO). In the presence of synergy, the actual OD value is lower than the expected OD. A paired t-test was used to confirm statistical significance of this difference in 3 replicates of the experiment.
(§4) The synergistic interaction between GVL and ethanol was initially discovered using a 6-point dose matrix of the two compounds. We identified the points of the greatest synergy and perform triplicate growth curves of GLBRY-128 using a TECAN M1000 microplate reader. To confirm the GVL-R1 strain was less sensitive to the synergism between GVL and ethanol, used a 6-point dose matrix as described above with both GLBRCY-128 or GVL-R1 in a TECAN microplate reader for 48 hours at 30° C. Data from the most synergistic combination is presented (2% GVL-5% ethanol).

[7] = test system: xylose fermenting strain; test: GVL-ethanol synergy, growth; settings: FIG. 3C
Method: as §3, §4

[8] = test system: Y133 pad1Δfdc1Δ; test: IC50 / tolerance, growth inhibition; settings: FIG. 5C; p<0.01
[9] = test system: PAD1 deletion mutant in the standard lab strain background; test: GVL IC50, growth inhibition; settings: single mutant validation; FIG. 4B
Method: as §1

[10] = test system: FDC1 deletion mutant in the standard lab strain background; test: GVL IC50, growth inhibition; settings: single mutant validation; FIG. 4B
Method: as §1

[11] = test system: Y133 pad1Δfdc1Δ; test: Growth and sugar conversion in synthetic hydrolysate with 1% GVL; settings: anaerobic, synthetic hydrolysate containing 1% GVL; FIG. 5D
Method: (§5) 6 25-mL anaerobic flasks were prepared with Synthetic hydrolysate (SynH) (6% glucose/3% xylose)+1% GVL, pH 5.0. Flasks were inoculated with rinsed 133 or 133 pad1Δfdc1Δ cells to bring the initial OD to approximately 0.1. The tubes were grown for 72 hours with agitation anaerobically at 30° C. 1 mL samples were taken every 24 hours. Initial and daily samples were measured for OD and submitted for HPLC analysis to quantify sugar consumption and ethanol production.

[12] = test system: Y133 background strain; test: as above; settings: anaerobic, synthetic hydrolysate containing 1% GVL; FIG. 5D
Method: as §5

[13] = test system: S. cerevisiae; test: 8 point dose curve for chemical genomic profiling; settings: YP-galactose media, 24 hours of growth
Method: Chemical genomic analysis of poacic acid was performed as described as described previously. The tested yeast deletion collection had ˜4000 strains using the genetic background described in Andrusiak (2012). The optimal inhibitory concentration of poacic acid for chemical genomic profiling (70-80% growth versus solvent control in YP-galactose media after 24 hours of growth) was determined using an 8 point dose curve. A concentration of 88 μg/ml inhibited growth within this range. 200 μl cultures of the pooled, deletion collection of S. cerevisiae deletion mutants were grown with 88 μg/ml poacic acid or a DMSO control in triplicate for 48 h at 30° C. Genomic DNA was extracted using the Epicentre MasterPure™ Yeast DNA purification kit. Mutant-specific molecular barcodes were amplified with specially designed multiplex primers. The barcodes were sequenced using an Illumina MiSeq. 3 replicates of each condition (poacic acid vs DMSO) were sequenced. One DMSO control was lost due to poor sequencing reads. The barcode counts for each yeast deletion mutant in the presence of poacic acid were normalized against the DMSO control conditions to define sensitivity or resistance of individual strains. To determine a p-value for each top sensitive and resistant mutant, we used the EdgeR package. […]

Compound: C=Cc1ccc(O)cc1 [4-vinylphenol]
- IC50 / toxicity of 4-vinylphenol relative to coumaric acid [1]: significantly more toxic; also recorded: an order of magnitude lower
- synergistic interaction between 4-vinylphenol and GVL [2]: significantly synergistic; also recorded: statistically significant synergistic interaction

Compound: CC1CCC(=O)O1 (centres unmarked) [GVL, gamma valerolactone]
- GVL concentration at which loss of membrane integrity is apparent [3]: 2.5%
- GVL IC50 / sensitivity compared to the control strain [4]: significantly more sensitive; also recorded: lower IC50
- GVL tolerance with increased expression of PAD1 [5]: significantly reduced GVL tolerance
- synergism between GVL and ethanol [6]: strong synergism
- synergistic interaction between GVL and ethanol ([7]; 1% GVL and 4% ethanol, p<0.01): significantly synergistic; also recorded: significant synergistic interaction
- synergism between GVL and ethanol ([7]; xylose fermenting strain): strong synergism
- IC50 concentration / tolerance of GVL versus Y133 background [8]: significantly greater; also recorded: significantly higher
- GVL tolerance of deletion mutant [9]: more tolerant; also recorded: improved GVL tolerance
- GVL tolerance of deletion mutant [10]: more tolerant; also recorded: improved GVL tolerance
- growth, sugar consumption and ethanol production in presence of GVL [11]: faster growth, sugar consumption, and ethanol production; also recorded: grew, consumed sugars, and produced ethanol
- growth, sugar consumption and ethanol production in presence of GVL [12]: did not

Compound: poacic acid
- concentration giving 70-80% growth versus solvent control [13]: 88 µg/mL
